From patent publication US4067990A, “Process for the preparation of insecticidal compositions based on carbamic esters” (Airwick Industries, Inc., priority 1971, dated 1978)
Like-named read-outs stand apart in the source and are kept apart here.

Experiments:
[1] = at 25° C
[2] = Dissolution capacity of diluents/solvents for Dioxacarb and Arprocarb; assay type: physicochemical
[3] = at 20° C, solute Arprocarb, footnotes

CCCC(=O)OC [Methylbutyrate]
Vapour pressure [1]: 34 Torr | Dissolution capacity for DIOXACARB ([2]; at 20° C, solute Dioxacarb): 8 weight %

CCCC(=O)OCC [Ethylbutyrate]
Vapour pressure [1]: 17 Torr | Dissolution capacity for DIOXACARB ([2]; at 20° C, solute Dioxacarb): 7 weight %

CC(C)=O [Acetone]
Vapour pressure [1]: 225 Torr | Dissolution capacity for DIOXACARB [2]: 28 weight % | Dissolving capacity for Dioxacarb [2]: 28%

CC(C)O [Isopropanol]
Vapour pressure [1]: 44 Torr | Dissolution capacity for ARPROCARB ([2]; at 20° C, solute Arprocarb): 30 weight % | Dissolving capacity for Arprocarb [2, 3]: approximately 30% | Dissolution capacity for DIOXACARB ([2]; at 20° C, solute Dioxacarb): 4.5 weight % | Dissolving capacity for Dioxacarb ([2]; at 20° C, solute Dioxacarb): 4.5%

CCC(=O)OC [Methylpropionate]
Vapour pressure [1]: 83 Torr | Dissolution capacity for DIOXACARB ([2]; at 20° C, solute Dioxacarb): 12 weight %

C1COCCO1 [Dioxan]
Vapour pressure [1]: 35 Torr | Dissolution capacity for DIOXACARB ([2]; at 20° C, solute Dioxacarb): 23 weight % | Dissolving capacity for Dioxacarb ([2]; at 20° C, solute Dioxacarb): 23%

CCCCOCCOCCOCCCC [5,8,11-Trioxapentadecane, 5,8,11-Trioxapenta-decane]
Vapour pressure [1]: 0.002 Torr | Dissolution capacity for DIOXACARB ([2]; at 20° C, solute Dioxacarb): 3.2 weight %

C[N+](=O)[O-] [Nitromethane]
Vapour pressure [1]: 34 Torr | Dissolution capacity for DIOXACARB ([2]; at 20° C, solute Dioxacarb): 27.5 weight % | Dissolving capacity for Dioxacarb ([2]; at 20° C, solute Dioxacarb): 27.5%

CCOC(=O)CC [Ethylpropionate]
Vapour pressure [1]: 37 Torr | Dissolution capacity for DIOXACARB ([2]; at 20° C, solute Dioxacarb): 9 weight %

ClC(Cl)Cl [Trichloromethane]
Vapour pressure [1]: 194 Torr | Vapour pressure ([1]; listed as Chloroform): 194 Torr | Dissolution capacity for DIOXACARB [2]: 34 weight % | Dissolving capacity for Dioxacarb [2]: 34%

COCCO [2-Methoxyethanol]
Vapour pressure [1]: 8.6 Torr | Dissolution capacity for DIOXACARB [2]: 15 weight % | Dissolving capacity for Dioxacarb [2]: about 15%

CCOC(C)=O [Ethylacetate]
Vapour pressure [1]: 97 Torr | Dissolution capacity for DIOXACARB ([2]; at 20° C, solute Dioxacarb): 10.5 weight % | Dissolving capacity for Dioxacarb ([2]; at 20° C, solute Dioxacarb): 10.5%

CCCCC [Pentane]
Vapour pressure [1]: 513 Torr | Dissolution capacity for ARPROCARB [2]: 0.3 weight % | Dissolution capacity for DIOXACARB [2]: 0.2 weight % | Dissolving capacity for Arprocarb [2]: 0.3% | Dissolving capacity for Dioxacarb [2]: approximately 0.2%

ter. Dodecanethiol
Vapour pressure [1]: 0.008 Torr | Dissolution capacity for DIOXACARB ([2]; at 20° C, solute Dioxacarb): 0.2 weight %

CCCCCCCCCCCCO [Composition 1-Dodecanol, 1-Dodecanol]
Vapour pressure [1]: 0.001 Torr | Dissolution capacity for DIOXACARB ([2]; at 20° C, solute Dioxacarb): 0.8 weight %

Tetrachlorodiphenyle
Vapour pressure [1]: < 0.001 Torr | Vapour pressure ([1]; listed as Tetrachlorodiphenyl): below 0.001 Torr | Vapour pressure ([1]; listed as tetrachlorodiphenyl): < 0.005 Torr | Dissolution capacity for DIOXACARB ([2]; at 20° C, solute Dioxacarb): 1.3 weight % | Dissolving capacity for Dioxacarb ([2]; at 20° C, solute Dioxacarb): 1.3%

CCCCCl [1-Chlorobutane]
Vapour pressure [1]: 102 Torr | Dissolution capacity for DIOXACARB ([2]; at 20° C, solute Dioxacarb): 2 weight % | Dissolving capacity for Dioxacarb ([2]; at 20° C, solute Dioxacarb): 2%

CCOCCOCCOC(C)Oc1ccc2c(c1)OCO2 (stereo not drawn) [T.U.O.B., 5-(3,6,9-trioxa-undecyl-2-oxy)-1,3-benzodioxole]
Vapour pressure [1]: < 0.005 Torr | Dissolution capacity for ARPROCARB ([2]; at 20° C, solute Arprocarb): 5.0 weight % | Dissolving capacity for Arprocarb [2, 3]: 5% | Dissolution capacity for DIOXACARB ([2]; at 20° C, solute Dioxacarb): 2.9 weight % | Dissolving capacity for Dioxacarb ([2]; at 20° C, solute Dioxacarb): 2.9%

CC#N [Acetonitrile]
Vapour pressure [1]: 86 Torr | Dissolution capacity for DIOXACARB ([2]; at 20° C, solute Dioxacarb): 35.5 weight % | Dissolving capacity for Dioxacarb ([2]; at 20° C, solute Dioxacarb): 35.5%

CCCCCO [Amylalcohol]
Vapour pressure [1]: 2.5 Torr | Dissolution capacity for DIOXACARB ([2]; at 20° C, solute Dioxacarb): 2.6 weight % | Dissolving capacity for Dioxacarb ([2]; at 20° C, solute Dioxacarb): 2.6%

CCCCCCCC/C=C\CCCCCCCC(=O)O [Oleic acid]
Vapour pressure [1]: 0.0002 Torr | Dissolution capacity for DIOXACARB ([2]; at 20° C, solute Dioxacarb): 1.2 weight %

CC(=O)OCC(C)C [Isobutylacetate]
Vapour pressure [1]: 17 Torr | Dissolution capacity for DIOXACARB ([2]; at 20° C, solute Dioxacarb): 6 weight %

CCCCCCC [Heptane]
Vapour pressure [1]: 38.5 Torr | Dissolution capacity for ARPROCARB ([2]; at 20° C, solute Arprocarb): 0.3 weight % | Dissolving capacity for Arprocarb [2, 3]: 0.3% | Dissolving capacity for Dioxacarb ([2]; at 20° C, solute Dioxacarb): about 0.2%

CCO [Ethanol]
Dissolution capacity for ARPROCARB [2]: 0.3 weight % | Dissolution capacity for DIOXACARB [2]: 0.2 weight % | Dissolving capacity for Arprocarb [2]: 40% | Dissolving capacity for Dioxacarb [2]: 8%

CC(Cl)(Cl)Cl [1.1.1-Trichloro-ethane]
Vapour pressure [1]: 121 Torr | Dissolution capacity for DIOXACARB ([2]; at 20° C, solute Dioxacarb): 2.3 weight % | Dissolving capacity for Dioxacarb ([2]; at 20° C, solute Dioxacarb): 2.3%

ClCCl [Dichloromethane]
Vapour pressure [1]: 420 Torr | Dissolution capacity for ARPROCARB [2]: 48 weight % | Dissolution capacity for DIOXACARB [2]: 45 weight % | Dissolving capacity for Arprocarb [2]: approximately 48% | Dissolving capacity for Dioxacarb [2]: 45%

CC(=O)OC(C)C [Isopropylacetate]
Vapour pressure [1]: 55 Torr | Dissolution capacity for DIOXACARB ([2]; at 20° C, solute Dioxacarb): 6 weight %

CCCCOC(=O)c1ccccc1C(=O)OCCCC [Dibutylphthalate]
Vapour pressure [1]: < 0.0001 Torr | Vapour pressure ([1]; listed as Dibutyl phthalate): ca. 0.0001 Torr | Vapour pressure ([1]; listed as dibutylphthalate): < 0.005 Torr | Dissolution capacity for DIOXACARB ([2]; at 20° C, solute Dioxacarb): 2.7 weight % | Dissolving capacity for Dioxacarb ([2]; at 20° C, solute Dioxacarb): 2.7%

COC(C)=O [Methylacetate]
Vapour pressure [1]: 216 Torr | Dissolution capacity for ARPROCARB ([2]; at 20° C, solute Arprocarb): 41 weight % | Dissolving capacity for Arprocarb [2, 3]: 41% | Dissolution capacity for DIOXACARB ([2]; at 20° C, solute Dioxacarb): 19.6 weight % | Dissolving capacity for Dioxacarb ([2]; at 20° C, solute Dioxacarb): 19.6%

CCCCCCCCCCCCCC(=O)OC(C)C [Isopropylmyristate]
Vapour pressure ([1]; listed as Isopropyl myristate): ca. 0.001 Torr | Vapour pressure ([1]; listed as isopropylmyristate): < 0.005 Torr | Dissolution capacity for ARPROCARB ([2]; at 20° C, solute Arprocarb): 1.3 weight % | Dissolving capacity for Arprocarb [2, 3]: 1.3% | Dissolution capacity for DIOXACARB ([2]; at 20° C, solute Dioxacarb): 0.3 weight % | Dissolving capacity for Dioxacarb ([2]; at 20° C, solute Dioxacarb): 0.3%

CCCCCCCCCCCCCCCCCl [1-Chlorohexadecane]
Vapour pressure [1]: < 0.0001 Torr | Vapour pressure ([1]; listed as 1-chlorohexadecane): < 0.005 Torr | Vapour pressure ([1]; listed as Chlorohexadecane): below 0.0001 Torr | Dissolving capacity for Arprocarb of the 1:1 mixture with 5-(3,6,9-trioxa-un-decyl-2-oxy)-1,3-benzodioxole ([2]; at 20° C, 1:1 mixture with T.U.O.B.): 2% | Dissolution capacity for ARPROCARB ([2]; at 20° C, solute Arprocarb): 0.4 weight % | Dissolving capacity for Arprocarb [2, 3]: 0.4% | Dissolution capacity for DIOXACARB ([2]; at 20° C, solute Dioxacarb): 0.7 weight % | Dissolving capacity for Dioxacarb ([2]; at 20° C, solute Dioxacarb): 0.7%

CCCCCCCCCCCCCCBr [1-Bromotetradecane]
Vapour pressure [1]: < 0.001 Torr | Vapour pressure ([1]; listed as 1-bromotetradecane): < 0.005 Torr | Dissolution capacity for DIOXACARB ([2]; at 20° C, solute Dioxacarb): 0.1 weight %

CCCOC(C)=O [Propylacetate]
Vapour pressure [1]: 33 Torr | Dissolution capacity for DIOXACARB ([2]; at 20° C, solute Dioxacarb): 6 weight %

C1CCOC1 [Tetrahydrofuran]
Vapour pressure [1]: 176 Torr | Dissolution capacity for ARPROCARB ([2]; at 20° C, solute Arprocarb): 50 weight % | Dissolving capacity for Arprocarb [2, 3]: approximately 50% | Dissolution capacity for DIOXACARB ([2]; at 20° C, solute Dioxacarb): 33.5 weight % | Dissolving capacity for Dioxacarb ([2]; at 20° C, solute Dioxacarb): 33.5%

CCC(N)(CO)CO [2-Amino-2-ethyl-1,3-propanediol]
Vapour pressure [1]: 0.01 Torr | Dissolution capacity for DIOXACARB ([2]; at 20° C, solute Dioxacarb): 2.4 weight %

OCC(O)CO [Glycerol]
Vapour pressure [1]: < 0.0001 Torr | Dissolution capacity for DIOXACARB ([2]; at 20° C, solute Dioxacarb): 0.6 weight %

CO [Methanol]
Vapour pressure [1]: 127 Torr | Dissolution capacity for DIOXACARB ([2]; at 20° C, solute Dioxacarb): 20.5 weight % | Dissolving capacity for Dioxacarb ([2]; at 20° C, solute Dioxacarb): 20.5%

COCCOC(C)=O [2-Methoxyethyl acetate]
Vapour pressure [1]: 5 Torr | Dissolution capacity for ARPROCARB ([2]; at 20° C, solute Arprocarb): 33 weight % | Dissolution capacity for DIOXACARB ([2]; at 20° C, solute Dioxacarb): 20 weight %

CCCCCCCC/C=C/CCCCCCCC(=O)CCCCCCC/C=C/CCCCCCCC [Oleone]
Vapour pressure [1]: < 10^-6 Torr | Dissolution capacity for DIOXACARB ([2]; at 20° C, solute Dioxacarb): 0.2 weight %

CCCCCCCCOC(=O)c1ccccc1C(=O)OCCCCCCCC [Dioctylphthalate]
Vapour pressure [1]: < 0.0001 Torr | Vapour pressure ([1]; listed as Dioctyl phthalate): below 0.0001 Torr | Vapour pressure ([1]; listed as dioctylphthalate): < 0.005 Torr | Dissolution capacity for ARPROCARB ([2]; at 20° C, solute Arprocarb): 2.6 weight % | Dissolving capacity for Arprocarb [2, 3]: 2.6% | Dissolution capacity for DIOXACARB ([2]; at 20° C, solute Dioxacarb): 0.1 weight % | Dissolving capacity for Dioxacarb ([2]; at 20° C, solute Dioxacarb): 0.1%

CCCCOC(C)=O [Butylacetate]
Vapour pressure [1]: 11 Torr | Dissolution capacity for DIOXACARB [2]: 5 weight %

c1ccccc1 [Benzene]
Dissolution capacity for DIOXACARB [2]: 3 weight % | Dissolving capacity for Dioxacarb [2]: 3%
